{"source": "patent US11123354B2", "about": "“Method for the treatment of osteoarthritis” (ABIOGEN PHARMA S.P.A., priority 2016, dated 2021)", "assay": "Pharmacokinetics and knee joint localization of 14C-Chlodronate after single intra-articular injection", "format": "in vivo, rat", "settings": "for residual concentration in femoral articular cartilage / residual concentration in femoral articular cartilage as % of the value measured at t=30 minutes: first order exponential approximation; for radioactivity in Femoral Articular Cartilage / radioactivity in Tibial Articular Cartilage: osteoarthritic rats, single i.a. 0.1 mg (2 mg/ml)", "experimental": "In this study the pharmacokinetics of ^14C-Chlodronate was evaluated, and the localization of the labeled compound in the knee joint following a single intra-articular injection of 0.1 mg of ^14C-Chlodronate, administered as aqueous solution in a concentration of 2 mg/ml, in sham and osteoarthritic rat models was verified.\nThe pharmacokinetic parameters of ^14C-Chlodronate were determined by measuring the radioactivity of blood samples collected at different timepoints from the time of injection.\nThe localization of the labeled compound in the knee joint was determined by leg x-rays. The fitting of radioactivity concentrations, expressed in μCi/g, was performed by using standard curves.", "key": {"[1]": {"settings": "about two weeks after the injection"}, "[2]": {"settings": "osteoarthritis rat model, 30 minutes from the injection"}}}
{"smiles": "O=P(O)(O)[14C](Cl)(Cl)P(=O)(O)O", "note": "[^14C-Chlodronate]", "values": [{"measurement": "radioactivity mean value in the cartilage", "setting": "168 hours (7 days) after the injection", "result": "about 25 μCi/g"}, {"measurement": "radioactivity in cartilage as % of the value found half an hour after the injection", "setting": "168 hours after the injection", "result": "more than 62%"}, {"measurement": "residual concentration in femoral articular cartilage", "setting": "about 1 month after injection", "result": "about 8.78 μCi/g"}, {"measurement": "residual concentration in femoral articular cartilage as % of the value measured at t=30 minutes", "setting": "about 1 month after injection", "result": "about 24.27%"}, {"measurement": "residual concentration in femoral articular cartilage", "setting": "[1]", "result": "about 18.92 μCi/g"}, {"measurement": "residual concentration in femoral articular cartilage as % of the value measured at t=30 minutes", "setting": "[1]", "result": "about 44.36%"}, {"measurement": "concentration in both femoral and tibial cartilage relative to the value measured at t=30 minutes", "setting": "about two weeks after the injection, first order exponential approximation of Table 7 data", "result": "> 40", "unit": "%"}, {"measurement": "concentration of 14C-Chlodronate in the blood", "setting": "after a few hours from the injection", "result": "very modest, practically negligible"}, {"measurement": "radioactivity in Femoral Articular Cartilage", "setting": "t = 30 minutes", "result": 42.649, "unit": "μCi/g"}, {"measurement": "radioactivity in Tibial Articular Cartilage", "setting": "t = 30 minutes", "result": 36.935, "unit": "μCi/g"}, {"measurement": "radioactivity in Femoral Articular Cartilage", "setting": "t = 6 hours", "result": 36.163, "unit": "μCi/g"}, {"measurement": "radioactivity in Tibial Articular Cartilage", "setting": "t = 6 hours", "result": 27.299, "unit": "μCi/g"}, {"measurement": "radioactivity in Femoral Articular Cartilage", "setting": "t = 24 hours", "result": 34.712, "unit": "μCi/g"}, {"measurement": "radioactivity in Tibial Articular Cartilage", "setting": "t = 24 hours", "result": 27.840, "unit": "μCi/g"}, {"measurement": "radioactivity in Femoral Articular Cartilage", "setting": "t = 72 hours", "result": 25.561, "unit": "μCi/g"}, {"measurement": "radioactivity in Tibial Articular Cartilage", "setting": "t = 72 hours", "result": 22.331, "unit": "μCi/g"}, {"measurement": "radioactivity in Femoral Articular Cartilage", "setting": "t = 168 hours", "result": 28.020, "unit": "μCi/g"}, {"measurement": "radioactivity in Tibial Articular Cartilage", "setting": "t = 168 hours", "result": 21.165, "unit": "μCi/g"}, {"measurement": "radioactivity concentration in the articular cartilage", "setting": "[2]", "result": "about 40 μCi/g"}, {"measurement": "radioactivity concentration in the synovial cavity and in the femoral and tibial bone", "setting": "[2]", "result": "lower than 1 μCi/g"}]}
